Converted amounts (≈) assume the structure as drawn.
How the values were obtained:
[1] = tested on: BCG Rv3790/DprE1 Cys387Ser (BN2); assay type: cell-based, M. bovis BCG
[2] = tested on: M. smegmatis Rv3790/DprE1 Cys387Ser (MN84); assay type: cell-based
[3] = tested on: M. smegmatis Rv3790/DprE1 Cys387Gly (MN47); assay type: cell-based

| Structure (SMILES) | MIC [1] | MIC [2] | MIC [3] |
| --- | --- | --- | --- |
| O=C(NCCOCc1ccccc1)c1cc([N+](=O)[O-])cc([N+](=O)[O-])c1 [Compound 7, N-(2-(benzyloxy)ethyl)-3,5-dinitrobenzamide] | > 10 µg/mL | – | – |
| CO[C@H]1/C=C/O[C@@]2(C)Oc3c(C)c(O)c4c(O)c(c(/C=N/N5CCN(C)CC5)c(O)c4c3C2=O)NC(=O)/C(C)=C\C=C\[C@H](C)[C@H](O)[C@@H](C)[C@@H](O)[C@@H](C)[C@H](OC(C)=O)[C@@H]1C [Rifampin] | 0.31 µg/mL (≈ 0.377 µM) | 0.31 µg/mL (≈ 0.377 µM) | 0.31 µg/mL (≈ 0.377 µM) |
| COc1ccc(OCCNC(=O)c2cc([N+](=O)[O-])cc([N+](=O)[O-])c2)cc1 [Compound 8, N-(2-(4-methoxyphenoxy)ethyl)-3,5-dinitrobenzamide] | > 10 µg/mL | – | – |

Reference: PMC2763345 (PLoS Pathogens, 2009)
